Laboratory results published in patent publication US20230279002A1, “Polymorphs of Crystalline Forms of 3,10-dimethoxy-5,8,13,13a-tetrahydro-6H-isoquinolino[3,2-a]isoquinolin-9-yl 3-fluorobenzenesulfonate and Salts Thereof” (CVI Pharmaceuticals Limited, priority 2020, published 2023).
Like-named read-outs stand apart in the source and are kept apart here.

Experiments:
Format in all cases: physicochemical
[1] = DVS (Dynamic Vapor Sorption) moisture sorption/desorption, hygroscopicity classification
Outline: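 Moisture sorption/desorption profiled by DVS on about 10–20 mg sample, isothermal at 25° C, cycling 0%→95%→0% RH in 5% RH steps. Equilibrium per step taken at dm/dt ≤ 0.01%/min. Hygroscopicity class assigned from %-moisture gain versus rising RH.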

[2] = Solubility in SGF, FaSSIF, FeSSIF, 0.1M HCl, pH 4.5 and pH 6.8 aqueous at 25° C. (HPLC); details: for solubility: 25 °C, thermodynamic from solid, read-out: Solubility conc.(mg/ml); for Final pH: solubility test
Experimental: Solubility: Excess drug substance was equilibrated with SGF (Simulated Gastric Fluid), FaSSIF (Simulated Small Intestinal Fluid under Fasted state), FeSSIF (Simulated Small Intestinal Fluid under Fed state), 0.1M HCl, pH 4.5 aqueous, and pH 6.8 aqueous at 25° C. After stirring for 20˜24 h, each sample was filtered, diluted appropriately and analyzed by HPLC. The experiment was terminated once a solubility target of 5 mg/mL was reached.

[3] = Solid stability at 40° C./0% RH (closed) and 40° C./75% RH (open), HPLC; details: for 0 day % remaining / 7 day % remaining / 21 day % remaining: solid
Outline: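 Solid compound (5 mg) stored in the dark at 40 °C/0% RH in closed vials and at 40 °C/75% RH open. Samples analysed by HPLC at day 0, 5 and 10, or at days 0, 7 and 21, depending on the study.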

[4] = Solution stability in 0.1 N HCl, pH 4.5 buffer and pH 6.8 buffer at 25° C. and 37° C., HPLC; details: for Remaining %: 50 μg/mL, 40% MeOH; for Solution stability: 0.1 N HCl, pH 4.5 buffer and pH 6.8 buffer
Outline: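 Methanol stock (1.0 mg/mL) diluted with each medium to ionic strength 0.15 M, final 50 μg/mL in 40% MeOH; acetate used for pH 4.5. For 1b and 3b at pH 6.8, final 25 μg/mL in 40% DMSO. Solutions stored at 25° C. and 37° C.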

[5] = TGA (Thermal Gravimetric Analysis) weight loss; details: DSC and TGA
Experimental: TGA (Thermal Gravimetric Analysis): Samples of compounds (4˜6 mg) were weighed into the pan, and heated under nitrogen purge using a ramp rate of 20° C./min over the range of 30° C.˜350° C.

- Hygroscopicity classification by DVS ([1]; 25 °C): not hygroscopic
- Change In Mass (%) - ref, Desorption ([1]; Cycle 1, target RH 0.0%): −0.0081%
- Change In Mass (%) - ref, Sorption ([1]; Cycle 1, target RH 0.0%): 0.0011%
- Change In Mass (%) - ref, Desorption ([1]; Cycle 1, target RH 5.0%): −0.0035%
- Change In Mass (%) - ref, Hysteresis ([1]; Cycle 1, target RH 5.0%): −0.0042%
- Change In Mass (%) - ref, Sorption ([1]; Cycle 1, target RH 5.0%): 0.0007%
- Change In Mass (%) - ref, Desorption ([1]; Cycle 1, target RH 10.0%): 0.0000%
- Change In Mass (%) - ref, Hysteresis ([1]; Cycle 1, target RH 10.0%): −0.0032%
- Change In Mass (%) - ref, Sorption ([1]; Cycle 1, target RH 10.0%): 0.0032%
- Change In Mass (%) - ref, Desorption ([1]; Cycle 1, target RH 15.0%): 0.0011%
- Change In Mass (%) - ref, Hysteresis ([1]; Cycle 1, target RH 15.0%): −0.0033%
- Change In Mass (%) - ref, Sorption ([1]; Cycle 1, target RH 15.0%): 0.0044%
- Change In Mass (%) - ref, Desorption ([1]; Cycle 1, target RH 20.0%): 0.0044%
- Change In Mass (%) - ref, Hysteresis ([1]; Cycle 1, target RH 20.0%): −0.0037%
- Change In Mass (%) - ref, Sorption ([1]; Cycle 1, target RH 20.0%): 0.0081%
- Change In Mass (%) - ref, Desorption ([1]; Cycle 1, target RH 25.0%): 0.0062%
- Change In Mass (%) - ref, Hysteresis ([1]; Cycle 1, target RH 25.0%): −0.0037%
- Change In Mass (%) - ref, Sorption ([1]; Cycle 1, target RH 25.0%): 0.0099%
- Change In Mass (%) - ref, Desorption ([1]; Cycle 1, target RH 30.0%): 0.0081%
- Change In Mass (%) - ref, Hysteresis ([1]; Cycle 1, target RH 30.0%): −0.0037%
- Change In Mass (%) - ref, Sorption ([1]; Cycle 1, target RH 30.0%): 0.0118%
- Change In Mass (%) - ref, Desorption ([1]; Cycle 1, target RH 35.0%): 0.0100%
- Change In Mass (%) - ref, Hysteresis ([1]; Cycle 1, target RH 35.0%): −0.0033%
- Change In Mass (%) - ref, Sorption ([1]; Cycle 1, target RH 35.0%): 0.0134%
- Change In Mass (%) - ref, Desorption ([1]; Cycle 1, target RH 40.0%): 0.0123%
- Change In Mass (%) - ref, Hysteresis ([1]; Cycle 1, target RH 40.0%): −0.0026%
- Change In Mass (%) - ref, Sorption ([1]; Cycle 1, target RH 40.0%): 0.0150%
- Change In Mass (%) - ref, Desorption ([1]; Cycle 1, target RH 45.0%): 0.0185%
- Change In Mass (%) - ref, Hysteresis ([1]; Cycle 1, target RH 45.0%): 0.0012%
- Change In Mass (%) - ref, Sorption ([1]; Cycle 1, target RH 45.0%): 0.0173%
- Change In Mass (%) - ref, Desorption ([1]; Cycle 1, target RH 50.0%): 0.0204%
- Change In Mass (%) - ref, Hysteresis ([1]; Cycle 1, target RH 50.0%): 0.0035%
- Change In Mass (%) - ref, Sorption ([1]; Cycle 1, target RH 50.0%): 0.0169%
- Change In Mass (%) - ref, Desorption ([1]; Cycle 1, target RH 55.0%): 0.0243%
- Change In Mass (%) - ref, Hysteresis ([1]; Cycle 1, target RH 55.0%): 0.0056%
- Change In Mass (%) - ref, Sorption ([1]; Cycle 1, target RH 55.0%): 0.0187%
- Change In Mass (%) - ref, Desorption ([1]; Cycle 1, target RH 60.0%): 0.0264%
- Change In Mass (%) - ref, Hysteresis ([1]; Cycle 1, target RH 60.0%): 0.0063%
- Change In Mass (%) - ref, Sorption ([1]; Cycle 1, target RH 60.0%): 0.0201%
- Change In Mass (%) - ref, Desorption ([1]; Cycle 1, target RH 65.0%): 0.0294%
- Change In Mass (%) - ref, Hysteresis ([1]; Cycle 1, target RH 65.0%): 0.0083%
- Change In Mass (%) - ref, Sorption ([1]; Cycle 1, target RH 65.0%): 0.0211%
- Change In Mass (%) - ref, Desorption ([1]; Cycle 1, target RH 70.0%): 0.0344%
- Change In Mass (%) - ref, Hysteresis ([1]; Cycle 1, target RH 70.0%): 0.0074%
- Change In Mass (%) - ref, Sorption ([1]; Cycle 1, target RH 70.0%): 0.0270%
- Change In Mass (%) - ref, Desorption ([1]; Cycle 1, target RH 75.0%): 0.0382%
- Change In Mass (%) - ref, Hysteresis ([1]; Cycle 1, target RH 75.0%): 0.0030%
- Change In Mass (%) - ref, Sorption ([1]; Cycle 1, target RH 75.0%): 0.0352%
- Change In Mass (%) - ref, Desorption ([1]; Cycle 1, target RH 80.0%): 0.0446%
- Change In Mass (%) - ref, Hysteresis ([1]; Cycle 1, target RH 80.0%): 0.0037%
- Change In Mass (%) - ref, Sorption ([1]; Cycle 1, target RH 80.0%): 0.0409%
- Change In Mass (%) - ref, Desorption ([1]; Cycle 1, target RH 85.0%): 0.0530%
- Change In Mass (%) - ref, Hysteresis ([1]; Cycle 1, target RH 85.0%): 0.0030%
- Change In Mass (%) - ref, Sorption ([1]; Cycle 1, target RH 85.0%): 0.0500%
- Change In Mass (%) - ref, Desorption ([1]; Cycle 1, target RH 90.0%): 0.0689%
- Change In Mass (%) - ref, Hysteresis ([1]; Cycle 1, target RH 90.0%): 0.0051%
- Change In Mass (%) - ref, Sorption ([1]; Cycle 1, target RH 90.0%): 0.0638%
- Change In Mass (%) - ref, Desorption ([1]; Cycle 1, target RH 95.0%): 0.0941%
- Change In Mass (%) - ref, Sorption ([1]; Cycle 1, target RH 95.0%): 0.0941%
- moisture picked up (DVS) ([1]; at 95% RH, 25 °C): ~0.1%
- solubility ([2]; 0.1 N HCl, simulated gastric fluid, 0.1N HCL, solubility of salts transformed to freebase): 0.206 mg/mL
- solubility ([2]; FaSSIF (Simulated Small Intestinal Fluid, fasted state), fassif, FaSSIF, solubility of salts transformed to freebase): 0.01 mg/mL
- solubility ([2]; FeSSIF (Simulated Small Intestinal Fluid, fed state), fessif, FeSSIF, solubility of salts transformed to freebase): 0.011 mg/mL
- Solubility conc.(mg/ml) ([2]; SGF, solubility of salts transformed to freebase): 0.147 mg/mL
- solubility ([2]; pH 4.5 acetate buffer (USP), pH 4.5, aqueous buffer, pH 4.5 Acetate Buffer (USP), solubility of salts transformed to freebase): 0.01 mg/mL
- solubility ([2]; pH 6.8 phosphate buffer (USP), pH 6.8, aqueous buffer, pH 6.8 Phosphate Buffer (USP), solubility of salts transformed to freebase): 0.008 mg/mL
- Final pH ([2]; 0.1N HCL): 1.59
- Final pH ([2]; FaSSIF): 6.23
- Final pH ([2]; FeSSIF): 4.93
- Final pH ([2]; SGF): 1.59
- Final pH ([2]; Water): 2.74
- Final pH ([2]; pH 4.5 Acetate Buffer (USP)): 4.44
- Final pH ([2]; pH 6.8 Phosphate Buffer (USP)): 6.67
- solubility ([2]; water, water, Water, solubility of salts transformed to freebase): 0.096 mg/mL
- Solid-state stability (HPLC) ([3]; 40° C./0% RH (closed) and 40° C./75% RH (open), dark, up to 3 weeks): substantially stable
- 0 day % remaining ([3]; 40° C. (0% RH, closed)): 100.0%
- 7 day % remaining ([3]; 40° C. (0% RH, closed)): 100.4%
- 21 day % remaining ([3]; 40° C. (0% RH, closed)): 100.0%
- 0 day % remaining ([3]; 40° C./75% RH (open)): 100.0%
- 7 day % remaining ([3]; 40° C./75% RH (open)): 100.3%
- 21 day % remaining ([3]; 40° C./75% RH (open)): 100.1%
- Solution stability, overall comparison of 1b, 2b and 3b ([4]; 25° C. and 37° C.): best solution stability behaviors
- Remaining % ([4]; 25° C., 0.1N HCL, 0 h): 100.00%
- Remaining % ([4]; 25° C., 0.1N HCL, 3 h): 100.07%
- Remaining % ([4]; 25° C., 0.1N HCL, 24 h): 100.37%
- Solution stability ([4]; 25° C., 24 h): stable
- Remaining % ([4]; 25° C., pH 4.5, 0 h): 100.00%
- Remaining % ([4]; 25° C., pH 4.5, 3 h): 99.80%
- Remaining % ([4]; 25° C., pH 4.5, 24 h): 99.52%
- Remaining % ([4]; 25° C., pH 6.8, 0 h): 100.00%
- Remaining % ([4]; 25° C., pH 6.8, 3 h): 99.52%
- Remaining % ([4]; 25° C., pH 6.8, 24 h): 98.01%
- Remaining % ([4]; 37° C., 0.1N HCL, 0 h): 100.00%
- Remaining % ([4]; 37° C., 0.1N HCL, 3 h): 100.34%
- Remaining % ([4]; 37° C., 0.1N HCL, 24 h): 100.95%
- Solution stability ([4]; 37° C., 24 h): stable
- Remaining % ([4]; 37° C., pH 4.5, 0 h): 100.00%
- Remaining % ([4]; 37° C., pH 4.5, 3 h): 100.00%
- Remaining % ([4]; 37° C., pH 4.5, 24 h): 99.45%
- Remaining % ([4]; 37° C., pH 6.8, 0 h): 100.00%
- Remaining % ([4]; 37° C., pH 6.8, 3 h): 100.28%
- Remaining % ([4]; 37° C., pH 6.8, 24 h): 99.86%
- Temperature until which there is no weight loss [5]: about 200 °C
SMILES: COc1ccc2c(c1)CCN1Cc3c(ccc(OC)c3OS(=O)(=O)c3cccc(F)c3)C[C@@H]21 [Compound 2b]
